5 compounds from patent US20240156971A1, “METHODS AND SORTILIN BINDING CONJUGATE COMPOUNDS FOR TARGETING CANCER STEM CELLS” (TRANSFERT PLUS, SOCIÉTÉ EN COMMANDITE, priority 2021, published 2024) can be followed below.

Experiment [1] deals with ovarian hOCSC xenografts. Briefly: hOCSC xenografts treated with single agents or combined with carboplatin. In kind it is in vivo, mice. As to conditions: docetaxel 10 mg/kg; TH1902 23 mg/kg; paclitaxel 10 mg/kg; carboplatin 40 mg/kg; day 18. The protocol: Mice bearing ovarian hOCSC xenografts were treated with vehicle, docetaxel, paclitaxel, TH1902 or carboplatin, and other groups of mice were administered carboplatin in combination with either docetaxel, paclitaxel or TH1902. To minimize the risk of side effects resulting from combining treatments, the dosages used for each drug were reduced to the following: docetaxel 10 mg/kg; TH1902 23 mg/kg (equivalent to the docetaxel dosage); paclitaxel 10 mg/kg; carboplatin 40 mg/kg (unchanged).

Experiment [2] deals with T1, Sortilin (Homo sapiens, UniProt Q99523).
T1 construct: host or cells: human triple-negative breast cancer stem cells (hBCSCs)
T1 sequence (Q99523 78-831): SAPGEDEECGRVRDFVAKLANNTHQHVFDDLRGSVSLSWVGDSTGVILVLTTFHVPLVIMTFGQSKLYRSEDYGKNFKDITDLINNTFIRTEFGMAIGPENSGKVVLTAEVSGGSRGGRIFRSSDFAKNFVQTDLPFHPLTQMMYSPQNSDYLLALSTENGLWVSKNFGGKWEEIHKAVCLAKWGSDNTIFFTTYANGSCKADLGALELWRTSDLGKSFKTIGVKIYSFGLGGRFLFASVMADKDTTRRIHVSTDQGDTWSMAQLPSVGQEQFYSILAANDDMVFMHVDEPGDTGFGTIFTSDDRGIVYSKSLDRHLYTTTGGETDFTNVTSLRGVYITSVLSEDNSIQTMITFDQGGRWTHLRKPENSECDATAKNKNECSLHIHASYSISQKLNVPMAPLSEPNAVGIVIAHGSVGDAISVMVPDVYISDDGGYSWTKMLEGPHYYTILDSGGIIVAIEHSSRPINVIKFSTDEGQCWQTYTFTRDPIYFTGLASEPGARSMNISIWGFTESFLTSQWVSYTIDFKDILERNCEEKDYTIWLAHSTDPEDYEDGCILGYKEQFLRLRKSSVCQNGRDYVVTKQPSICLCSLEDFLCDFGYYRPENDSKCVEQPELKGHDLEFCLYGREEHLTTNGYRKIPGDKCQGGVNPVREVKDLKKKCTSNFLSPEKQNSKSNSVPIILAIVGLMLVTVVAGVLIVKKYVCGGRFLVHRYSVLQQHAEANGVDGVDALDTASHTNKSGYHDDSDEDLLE
The experiment can be described thus: Uptake of TH19P01-Alexa Fluor 488 by hBCSCs in the presence of competing Sortilin ligands. As to conditions: 200 nM fluorescent peptide, 2 h, 10 μM neurotensin, 50 μM TH19P01 or 1 nM progranulin. In kind it is cell-based.

The subject of experiment [3] is hBCSCs. The experiment can be described thus: Internalization of TH19P01-Alexa Fluor 488 by hBCSCs (flow cytometry). In kind it is cell-based, human. The settings on record: 200 nM, 2 hours, vs vehicle-treated cells. The protocol: Assessment of Intracellular Fluorescence with TH19P01-Alexa Fluor™ 488. hBCSC were grown in 12-well plates in complete media for 24 hours. […] In another experiment, siScrambled- or siSORT1-transfected cells were washed with HBSS and incubated in HBSS in the presence or absence of 200 nM Alexa Fluor™ 488-labeled TH19P01. For both types of experiments, after 2 hours of incubation at 37° C., cells were washed with HBSS, trypsinized, washed again and fluorescence assessed in the FL1 channel using a C6 Accuri™ flow cytometer (BD Biosciences, San Jose, CA).
(In general: Flow cytometry measures light scatter and fluorescence of single cells or particles in a stream.)

Square brackets hold non-standard residues; d marks the D form. Ends that are not written are not given here. Alexa Fluor 488 = Alexa Fluor 488 C5-maleimide dye; Nle = CCCC[C@H](N)C(=O)O

Take `CC(=O)O[C@H]1C(=O)[C@@]2(C)[C@H]([C@H](OC(=O)c3ccccc3)[C@]3(O)C[C@H](OC(=O)[C@H](O)[C@@H](NC(=O)c4ccccc4)c4ccccc4)C(C)=C1C3(C)C)[C@]1(OC(C)=O)CO[C@@H]1C[C@@H]2O` [Paclitaxel, paclitaxel]: the “inhibition of tumor growth, single agent” value in experiment [1] was “practically equivalent to that seen with docetaxel”.
Turning to `N.N.O=C([O-])C1(C(=O)[O-])CCC1.[Pt+2]` [carboplatin], the “inhibition of tumor growth, single agent” value in experiment [1] is reported as “practically equivalent to that seen with docetaxel”.
As for “GVRAKAGVRN(Nle)FKSESY (GVRAKAGVRN[Nle]FKSESY) [TH19P01]”, the “decrease of intracellular fluorescence (internalization of TH19P01-Alexa Fluor 488) by competing agent” value in experiment [2] was “decrease significantly (p<0.01) by about half”.
For “TH19P01-Alexa Fluor™ 488 (GVRAKAGVRN[Nle]FKSESYC(Alexa Fluor 488))”, in experiment [3], the “fluorescent signal in cells versus background fluorescence” value is “an order of magnitude greater than the background fluorescence”.
As to progranulin [reference compound], the “decrease of intracellular fluorescence (internalization of TH19P01-Alexa Fluor 488) by competing agent” value in experiment [2] is reported as “decrease significantly (p<0.01) by about half”.
